The text below walks through data of patent US20230116399A1, “Tumor Homing Statin Derivatives” (Da Zen Theranostics, Inc., priority 2019, published 2023).

Structures are written as SMILES. Some results are limits rather than exact numbers.

What all share (type): cell-based, human
The test system of experiment [1] is PC9 (LC). Nature of the experiment: MTT cell viability, PC9. The following applies: 48 h / 24 hours, relative IC50. How it is done: (§1) Cell culture: In the following examples, unless otherwise specified, all cell lines are purchased from American Type Culture Collection and cultured in American Type Culture Collection (ATCC)-recommended media, with fetal bovine serum (FBS) to a final concentration of 10% and 1×penicillin/streptomycin at 37° C. with 5% CO2 in a cell culture incubator, unless otherwise specified. Unless otherwise specified, culture is 2D. Where culture is 3D, low attachment plates are used, with the same media. C4-2B (parental cell line and drug-resistant cells derived therefrom) are cultured in RPMI-1640 with 10% FBS. MDVR cells (an Enzalutamide-resistant variety of C4-2B prostate cancer cells formed as described in Example 4 below) are cultured as indicated for the parental C4-2B cells. 22RV1 Prostate Cancer (PC) cells (ATCC® CRL-2505™, a human prostate carcinoma cell line of epithelial morphology) are cultured in RPMI-1640 with 10% FBS. A549 cells (ATCC® CCL-185™, a human lung carcinoma cell line of epithelial morphology) are cultured in F-12K medium with 10% FBS. A549/DDP cells (Cells were described in DOI: 10.3892/mmr.2014.2163 and in doi: 10.7150/jca.19426; cisplatin resistant cells may be established from exposing parental A549 cells to cisplatin for an extended time). MDR A549/cisplatin lung adenocarcinoma cell line, drug resistant) are cultured in F-12K medium with 10% FBS. H1975 cells (ATCC® CRL-5908™, a human adenocarcinoma non-small cell lung cancer cell line of epithelial morphology) are cultured in RPMI-1640 medium with 10% FBS; H1975 cells are a cell model for human lung cancer that is resistant to Gefitinib (an EGFR inhibitor drug used for treatment of certain breast, lung and other cancers). H1650 cells (ATCC® CRL-5883™, a adenocarcinoma/bronchoalveolar carcinoma lung cancer cell line of epithelial morphology) are cultured in RPMI-1640 medium with 10% FBS. […]

Experiment [2] has as its system H1975 (LC). In words: MTT cell viability, H1975. As to conditions: relative IC50. How it is done:
as §1

Experiment [3] deals with H446 (LC). In words: MTT cell viability, H446. The following applies: relative IC50. How it is done:
as §1

Experiment [4] deals with A549DDP (LC). Nature of the experiment: MTT cell viability, A549DDP. The following applies: 48 h / 24 hours, relative IC50. How it is done:
as §1
[…] For each cell line, the IC50 is determined for each drug, i.e. the ELSD, the ALSD, and for the corresponding unconjugated statin (Simvastatin), in concentrations from 0.1-100 μM. […]

Experiment [5] has as its system A549 (LC). Nature of the experiment: MTT cell viability, A549. The following applies: 48 h / 24 hours, relative IC50. How it is done: as §1
The subject of experiment [6] is H1650 (LC). In words: MTT cell viability, H1650. As to conditions: relative IC50. How it is done: as §1

`CC1(C)C(/C=C/C2=C(Cl)C(=C/C=C3/N(CCCCCC(=O)O)c4ccccc4C3(C)C)/CCC2)=[N+](CCCCS(=O)(=O)[O-])c2ccccc21` [DZ1]: the IC50 in experiment [1], in experiment [2] (48 h / 24 hours), in experiment [3] (48 h / 24 hours), in experiment [4], in experiment [5] and in experiment [6] (48 h / 24 hours) was above 50 µM in each case.
On to `CCC(C)(C)C(=O)O[C@H]1C[C@@H](C)C=C2C=C[C@H](C)[C@H](CC[C@@H]3C[C@@H](O)CC(=O)O3)[C@H]21` [Simvastatin], for which the IC50 is 33 µM in experiment [1] (Homo sapiens); above 50 µM in experiment [2] (Homo sapiens, NCI-H1975, 48 h / 24 hours); 39 µM in experiment [3] (Homo sapiens, NCI-H446, 48 h / 24 hours); 30 µM in experiment [4] (Homo sapiens, A549/DDP); above 50 µM in experiment [5] (Homo sapiens); 33.3 µM in experiment [6] (Homo sapiens, NCI-H1650, 48 h / 24 hours).
